The target in the experiment is T1, Na^+/K^+ ATPase.
T1 construct: gene ATP1A1; enzyme isolated from porcine cerebral cortex
The experiment can be described thus: ATPase enzymatic activity assay (Sigma) with isolated porcine cerebral cortex enzyme. It counts as biochemical, Sus scrofa.

As usually defined, the IC50 is the midpoint of a concentration-inhibition curve. `C[C@]12CCC(=NOCCN)C[C@@H]1C(=O)C[C@@H]1[C@@H]2CC[C@]2(C)C(=O)CC[C@@H]12` [istaroxime, (E, Z) 3-(2-aminoethoxyimino)-5α-androstane-6, 17-trione]: the IC50 is 408 nM.

These data come from paper PMC5029711, “Functional characterization and anti-cancer action of the clinical phase II cardiac Na^+/K^+ ATPase inhibitor istaroxime: in vitro and in vivo properties and cross talk with the membrane androgen receptor” (Oncotarget, 2016).
